IC50 data for 54 compounds are collected here from patent publication US20250304537A1 (Repare Therapeutics Inc., priority 2022, published 2025).

The subject of the first experiment is PKMYT1 (CDK1 pThr14) in FUOV1 cells. Nature of the experiment: PKMYT1 cell-based activity assay, CDK1 pThr14 AlphaLISA in FUOV1 cells. As to conditions: 2 h, 2 h compound incubation, read-out: FUOV-1 CDK1 pThr14 IC50. Put shortly:
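FUOV1 cells were treated with PKMYT1 inhibitor for 2 h at 37 °C, then lysed. CDK1 pThr14 was measured by AlphaLISA, pairing an anti-pThr14 antibody with an anti-total CDK1 antibody (5 nM each). Signal read at 680/615 nm and used to derive IC50.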
A general note: Bead proximity is the source of the signal in Alpha formats.
For the compound `Cc1nc(F)cc(Nc2cc(F)ccc2-c2nc(C(N)=O)c(N)c(-c3c(C)ccc4[nH]ncc34)n2)n1` [Compound 568], the IC50 was determined as 15 nM. On the same count and under the same terms, next, `Cc1ccc2[nH]ncc2c1-c1nc(-c2cncnc2NCC(F)(F)F)nc(C(N)=O)c1N` [Compound 573]: 182 nM; `Cc1ncc(F)c(Nc2cc(F)ccc2-c2nc(C(N)=O)c(N)c(-c3c(C)ccc4[nH]ncc34)n2)n1` [Compound 714]: 13 nM. For the compound `Cc1ccc2[nH]ncc2c1-c1nc(-c2cc(F)cnc2N[C@@H](C)C2CC2)nc(C(N)=O)c1N` [Compound 710], the IC50 worked out at 19 nM. Consider `Cc1ccc(-c2nc(C(N)=O)c(N)c(-c3c(C)ccc4[nH]ncc34)n2)c(Nc2nccnc2Cl)n1` [Compound 721], for which the IC50 is 4 nM. For the compound `Cc1ccc2[nH]ncc2c1-c1nc(-c2cccnc2N[C@H]2CCCOC2)nc(C(N)=O)c1N` [Compound 546], the IC50 came to 12 nM. The same measure, in the same setting: next, `Cc1cnc(Nc2cc(F)ccc2-c2nc(C(N)=O)c(N)c(-c3c(C)ccc4[nH]ncc34)n2)s1` [Compound 587]: 172 nM; `Cc1ccc2[nH]ncc2c1-c1nc(-c2cccnc2N[C@@H]2CCOC[C@@H]2F)nc(C(N)=O)c1N` [Compound 643]: 7 nM; `Cc1ccc2[nH]ncc2c1-c1cc2c(oc3ccc(F)nc32)c(C(N)=O)c1N` [Compound 557]: 416 nM. As to `CCc1cccnc1Nc1ncccc1-c1nc(C(N)=O)c(N)c(-c2c(C)ccc3[nH]ncc23)n1` [Compound 730], the IC50 stood at 19 nM. Same read-out and setting: under `Cc1ccc2[nH]ncc2c1-c1nc(-c2cc(F)cnc2NC(C)C)nc(C(N)=O)c1N` [Compound 679] stands 13 nM; under `Cc1ccc2[nH]ncc2c1-c1nc(-c2cccnc2NC[C@@H]2CCCO2)nc(C(N)=O)c1N` [Compound 670], 198 nM; under `Cc1cccc(Nc2ncccc2-c2nc(C(N)=O)c(N)c(-c3c(C)ccc4[nH]ncc34)n2)c1` [Compound 634], 569 nM. On the same count and under the same terms, next, `Cc1ccc2[nH]ncc2c1-c1nc(-c2ccc(F)cc2NC(=O)C2(C)CCCO2)nc(C(N)=O)c1N` (stereo not drawn) [Compound 528]: 118 nM; `Cc1ccc2[nH]ncc2c1-c1nc(-c2ccc(F)cc2Nc2ncncc2F)nc(C(N)=O)c1N` [Compound 526]: 4 nM; `Cc1ccc(-c2nc(C(N)=O)c(N)c(-c3c(C)ccc4[nH]ncc34)n2)c(Nc2nnccc2C)n1` [Compound 628]: 41 nM. Same read-out and setting: under `Cc1ccc2[nH]ncc2c1-c1nc(-c2cc(F)cnc2NC2CC2)nc(C(N)=O)c1N` [Compound 680] stands 14 nM. With `Cc1ccc2[nH]ncc2c1-c1cc2c(oc3ccc(OC4CCOCC4)nc32)c(C(N)=O)c1N` [Compound 635], the IC50 stood at 402 nM. For the compound `CSc1nccc(Nc2cc(F)ccc2-c2nc(C(N)=O)c(N)c(-c3c(C)ccc4[nH]ncc34)n2)n1` [Compound 583], the IC50 worked out at 122 nM.

Turning to `Cc1ccc2[nH]ncc2c1-c1nc(-c2cccnc2NCCS(C)(=O)=O)nc(C(N)=O)c1N` [Compound 543], the IC50 turned out to be 931 nM. `Cc1cncc(Nc2cc(F)ccc2-c2nc(C(N)=O)c(N)c(-c3c(C)ccc4[nH]ncc34)n2)c1` [Compound 666]: the IC50 stood at 38 nM. As for `Cc1ccc2[nH]ncc2c1-c1nc(-c2cc(F)ccc2NS(=O)(=O)C(F)F)nc(C(N)=O)c1N` [Compound 493], the IC50 turned out to be 681 nM. In the case of `Cc1ccc2[nH]ncc2c1-c1nc(-c2ccc(F)cc2Nc2cccnc2C#N)nc(C(N)=O)c1N` [Compound 674], the concentration for half-maximal inhibition (IC50) came out at 27 nM.

With `Cc1ccc2[nH]ncc2c1-c1nc(-c2cccnc2NC2CCN(C)C2=O)nc(C(N)=O)c1N` (stereo not drawn) [Compound 561], the IC50 turned out to be 426 nM. For the compound `Cc1ccc2[nH]ncc2c1-c1nc(-c2cc(F)cnc2N[C@H]2C[C@](C)(O)C2)nc(C(N)=O)c1N` [Compound 748], the IC50 came to 40 nM. For `Cc1ccc2[nH]ncc2c1-c1nc(-c2cccnc2Nc2nc(F)ccc2Cl)nc(C(N)=O)c1N` [Compound 752], the IC50 came to 2 nM. Take `Cc1cccnc1Nc1ncc(F)cc1-c1nc(C(N)=O)c(N)c(-c2c(C)ccc3[nH]ncc23)n1` [Compound 672]: the IC50 amounted to 33 nM. For `Cc1ccc2[nH]ncc2c1-c1nc(-c2cc(F)ccc2NS(=O)(=O)C2CC(F)(F)C2)nc(C(N)=O)c1N` [Compound 514], the IC50 was found to be 1340 nM. On the same count and under the same terms, next, `Cc1ccc(-c2nc(C(N)=O)c(N)c(-c3c(C)ccc4[nH]ncc34)n2)c(Nc2ncccn2)c1` [Compound 653]: 61 nM; `Cc1ccc2[nH]ncc2c1-c1nc(-c2cc(F)c(F)cc2NCC(N)CO)nc(C(N)=O)c1N` (stereo not drawn) [Compound 501]: 146 nM. As to `Cc1ccc2[nH]ncc2c1-c1nc(-c2ccc(F)cc2Nc2nccc(C(F)(F)F)n2)nc(C(N)=O)c1N` [Compound 572], the IC50 worked out at 764 nM.

As for `Cc1ccc2[nH]ncc2c1-c1nc(-c2cc(F)c(F)cc2NC2CC(C)(C)NC(C)(C)C2)nc(C(N)=O)c1N` [Compound 502], the IC50 amounted to 871 nM.

With `Cc1ccc2[nH]ncc2c1-c1nc(-c2cccnc2NCC(C)(C)O)nc(C(N)=O)c1N` [Compound 682], the IC50 amounted to 83 nM. On the same count and under the same terms, under `Cc1ccc2[nH]ncc2c1-c1nc(-c2cccnc2Nc2ncccc2CC#N)nc(C(N)=O)c1N` [Compound 741] stands 155 nM.

Still in this experiment, the particulars now being: 2 h, 2 hours with compound, read-out: FUOV-1 CDK1 pThr14 IC50.
Regarding `NC(=O)c1nc(-c2cccnc2NC2CC2)nc(-c2cccc3[nH]ncc23)c1N` [Compound 932], the IC50 is 469 nM. For `Cc1ccc2[nH]ncc2c1-c1nc(-c2cccnc2NC2CC2)nc(C(N)=O)c1N` [Compound 914, 5-amino-2-(2-(cyclopropylamino)pyridin-3-yl)-6-(5-methyl-1H-indazol-4-yl)pyrimidine-4-carboxamide], the IC50 amounted to 54 nM. With `Cc1cc(F)c2[nH]ncc2c1-c1nc(-c2ccc(F)nc2Nc2nc(F)ccc2F)nc(C(N)=O)c1N` [Compound 879], the IC50 stood at 7 nM. Regarding `COc1ccc(F)c(Nc2nc(F)ccc2-c2nc(C(N)=O)c(N)c(-c3c(C)ccc4[nH]ncc34)n2)n1` [Compound 922], the IC50 was found to be 34 nM.

`Cc1cc(F)c2[nH]ncc2c1-c1nc(-c2ccc(C(F)F)nc2Nc2ncccn2)nc(C(N)=O)c1N` [Compound 907]: the half-maximal inhibitory concentration (IC50) was found to be 214 nM. In the case of `Cc1ccc2[nH]ncc2c1-c1nc(-c2ccc(Cl)nc2Nc2nccnc2F)nc(C(N)=O)c1N` [Compound 825], the IC50 was determined as 9 nM. On the same count and under the same terms, next, `Cc1ccc2[nH]ncc2c1-c1nc(-c2ccccc2NC2CC(O)(C(F)(F)F)C2)nc(C(N)=O)c1N` (stereo not drawn) [Compound 882]: 49 nM; `[2H]C([2H])([2H])c1ccc2[nH]ncc2c1-c1nc(-c2ccc(C3CC3)nc2Nc2nc(C)ncc2F)nc(C(N)=O)c1N` [Compound 977]: 203 nM. The same measure, in the same setting: next, `Cc1ccc2[nH]ncc2c1-c1nc(-c2cccnc2N[C@H]2C[C@@](C)(O)C2)nc(C(N)=O)c1N` [Compound 918]: 47 nM. On to `[2H]C([2H])([2H])c1ccc(-c2nc(C(N)=O)c(N)c(-c3c(C([2H])([2H])[2H])ccc4[nH]ncc34)n2)c(Nc2ncccn2)n1` [Compound 960], for which the concentration for half-maximal inhibition (IC50) was determined as 40 nM. Same read-out and setting: next, `Cc1ccc(-c2nc(C(N)=O)c(N)c(-c3c(C)ccc4[nH]ncc34)n2)c(N[C@H]2C[C@@](C)(O)C2)n1` [Compound 956]: 92 nM. Still for that read-out and setting: under `[2H]C([2H])([2H])c1ccc2[nH]ncc2c1-c1nc(-c2ccc(C3CC3)nc2Nc2ncccn2)nc(C(N)=O)c1N` [Compound 974, 5-amino-2-(6-cyclopropyl-2-(pyrimidin-2-ylamino)pyridin-3-yl)-6-(5-(methyl-d3)-1H-indazol-4-yl)pyrimidine-4-carboxamide] stands 186 nM. Same read-out and setting: next, `NC(=O)c1nc(-c2ccccc2Nc2ncccn2)nc(-c2c(Cl)ccc3[nH]ncc23)c1N` [Compound 948]: 44 nM; `Cc1ccc2[nH]ncc2c1-c1nc(-c2ccc(F)nc2Nc2ncccc2C(F)F)nc(C(N)=O)c1N` [Compound 945]: 23 nM.

Take `Cc1ccc2[nH]ncc2c1-c1nc(-c2ccccc2[S+](C)[O-])nc(C(N)=O)c1N` (stereo not drawn) [Compound 820]: the IC50 worked out at 229 nM. For `NC(=O)c1nc(-c2ccc(F)nc2Nc2ncccc2F)nc(-c2c(Cl)ccc3[nH]ncc23)c1N` [Compound 913], the IC50 worked out at 8 nM. The same measure, in the same setting: under `Cc1ccc2[nH]ncc2c1-c1nc(-c2ccc(F)nc2Nc2ncccc2F)nc(C(N)=O)c1N` [Compound 929] stands 7 nM; under `Cc1ccc2[nH]ncc2c1-c1nc(-c2cc(F)cnc2N[C@H]2CC[C@@H](O)C2)nc(C(N)=O)c1N` [Compound 797], 48 nM. Still for that read-out and setting: next, `NC(=O)c1nc(-c2cccnc2NC2CC2)nc(-c2c(Cl)ccc3[nH]ncc23)c1N` [Compound 919]: 92 nM; `Cc1ccc2[nH]ncc2c1-c1nc(-c2cc(F)cnc2N[C@H]2C[C@H]3CC[C@@H]2O3)nc(C(N)=O)c1N` [Compound 891]: 22 nM.

The term IC50 denotes the concentration that gives 50% inhibition.
